Assay results published in PubChem BioAssay (NCI).
“And” between values parts separate entries of the source, which are not always exact repeats. Equal entries are not always repeated.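 Following 48 hours of exposure in 96-well plates, responses at five concentrations were used to interpolate endpoints linearly. Here, GI50 denotes the concentration required for 50% inhibition of growth. At the TGI there is no net growth.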 Where a SMILES comes first, the peptide text is derived from it. [ ]: non-standard residue; d: D form. The star is where a group is joined. ξ: configuration not given here. dIva = CC[C@@](C)(N)C(=O)O; Aib = CC(C)(N)C(=O)O; ξP = O=C(O)C1CCCN1; βAla = NCCC(=O)O; X5 = OCN*

Tests used:
Assay in all cases: growth of human tumour cells (NCI), 48 h
CCRF-CEM leukemia = test system: CCRF-CEM leukemia
SF-295 CNS = test system: SF-295 CNS
MDA-MB-435 = test system: MDA-MB-435
T-47D breast = test system: T-47D breast
DU-145 prostate = test system: DU-145 prostate
HCT-116 colon = test system: HCT-116 colon
SN12C renal = test system: SN12C renal
MDA-MB-231 breast = test system: MDA-MB-231 breast

| SMILES | GI50 (CCRF-CEM leukemia) [µM] | TGI (CCRF-CEM leukemia) [µM] | GI50 (SF-295 CNS) | TGI (SF-295 CNS) | GI50 (MDA-MB-435) | TGI (MDA-MB-435) | GI50 (T-47D breast) | TGI (T-47D breast) | GI50 (DU-145 prostate) | TGI (DU-145 prostate) | GI50 (HCT-116 colon) | TGI (HCT-116 colon) | GI50 (SN12C renal) | TGI (SN12C renal) | GI50 (MDA-MB-231 breast) | TGI (MDA-MB-231 breast) |
| --- | --- | --- | --- | --- | --- | --- | --- | --- | --- | --- | --- | --- | --- | --- | --- | --- |
| O=C(CN1CCN(c2ccccn2)CC1)Nc1ccc(Cl)cc1C(=O)c1ccccc1Cl | 9.99 | > 100 | 30.5 µM | > 100 µM | 28.4 µM | > 100 µM | 3.89 µM | > 100 µM | > 100 µM | > 100 µM | 10 µM | > 100 µM | > 100 µM | > 100 µM | – | – |
| O=C(Nc1ccc(N2CCNCC2)cn1)c1[nH]ncc1Nc1ncnc2sc3c(c12)CCC3 | – | – | 4.31 µM | 23.9 µM | 1.13 µM | 2.67 µM | 1.65 µM | 4.27 µM | 1.6 µM | 3.06 µM | 0.542 µM | 2.18 µM | 2 µM | 4.59 µM | 1.69 µM | 3.28 µM |
| O=C(O)CSc1nnc2c3ccccc3c3ccccc3c2n1 | – | – | – | > 100 µM | – | > 100 µM | – | – | – | > 100 µM | – | > 100 µM | – | > 100 µM | – | > 100 µM |
| O=C1CC2OCC=C3CN4CCC56c7ccccc7N1C5C2C3CC46 (stereo not drawn) (tested in a mixture with another compound) | – | – | > 50 µg/mL | > 50 µg/mL | > 50 µg/mL | > 50 µg/mL | > 50 µg/mL | > 50 µg/mL | > 50 µg/mL | > 50 µg/mL | > 50 µg/mL | > 50 µg/mL | > 50 µg/mL | > 50 µg/mL | > 50 µg/mL | > 50 µg/mL |
| COc1ccc2c(c1)C(=O)c1c-2n(CCCNCCO)c(=O)c2cc([N+](=O)[O-])ccc12 | < 0.01 | < 0.01 | < 0.01 µM | 0.0115 µM | < 0.01 µM | 1.06 µM | – | – | < 0.01 µM | – | < 0.01 µM | 0.192 µM | < 0.01 µM | 4.15 µM | 0.594 µM | 2.34 µM |
| O=S1(=O)C=C(c2ccccc2)C(c2ccccc2)=C1 | 3 | 7.6 | 2.06 µM | 6.3 µM | 1.41 µM | 3.33 µM | – | – | 1.64 µM | 3 µM | 1.09 µM | 2.28 µM | 1.79 µM | 3.92 µM | 1.62 µM | 3.09 µM |
| C=C1C(OCCO)OC2O[C@]3(C)CCC4[C@H](C)CCC1C24OO3 (stereo partly drawn) | 4.92 | 28.4 | > 100 µM | > 100 µM | 12.9 µM | 83.6 µM | 1.56 µM | > 100 µM | 36.3 µM | > 100 µM | 8.69 µM | > 100 µM | – | – | – | – |
| CC[C@@](C)(NC(=O)[C@H](C)NC(=O)CCNC(=O)C(C)(C)NC(=O)[C@H](C)NC(=O)[C@@H]1CCCN1C(=O)[C@@](C)(CC)NC(=O)[C@H](Cc1ccccc1)NC(=O)C1CCCN1C(=O)C(C)(C)NC(=O)C1CCCN1C(=O)C(C)(C)NC(C)=O)C(=O)NCCC(=O)N[C@@H](CC(C)C)C(=O)NC(C)(C)C(=O)NCCC(=O)N[C@@H](CC(C)C)C(=O)NC(C)(C)C(=O)NC(C)(C)C(=O)N[C@@H](CC(C)C)C(=O)NCCC(=O)NCO (stereo partly drawn) (Ac-[Aib][ξP][Aib][ξP]F[dIva]PA[Aib][βAla]A[dIva][βAla]L[Aib][βAla]L[Aib][Aib]L[βAla]-X5) | 0.224 | 0.577 | 0.0539 µM | 0.213 µM | 0.142 µM | 0.357 µM | 0.0739 µM | 0.302 µM | 0.125 µM | 0.338 µM | 0.218 µM | 0.431 µM | 0.119 µM | 0.373 µM | – | – |
| CN(C)c1ccc(/C=N/NC(=O)c2cnc3ccccc3c2)cc1 | – | – | – | > 100 µM | – | 34.5 µM | – | – | – | > 100 µM | – | > 100 µM | – | > 100 µM | – | > 100 µM |
| CCC(=O)OCN1C(=O)C=CC1=O | – | 1.84 | 18.4 µM | 35.2 µM and > 66.6 µM | 17.4 µM | 32.8 µM and 28.5 µM | – | – | 20 µM | 34.2 µM and 30.2 µM | 11.8 µM | 25.8 µM and 29.9 µM | 16.2 µM | 30.5 µM and 35.6 µM | – | 33.2 µM and 33.1 µM |
| COc1ccc(CNC(=O)c2c(C)n([O-])c3cc(F)c(F)cc3[n+]2=O)cc1 | 3.2 | 12.4 | – | – | – | – | 3.33 µM | 16.1 µM | 13.7 µM | 26.5 µM | 14.1 µM | 27.1 µM | 14.2 µM | 27.2 µM | 12.2 µM | 25.5 µM |
| N#CC(CC(=O)O)=C(c1ccccc1)c1ccccc1 | – | – | – | > 100 µM | – | > 100 µM | – | – | – | – | – | > 100 µM | – | > 100 µM | – | > 100 µM |
| COc1ccc(OC)c(/C=C/C(=O)c2ccc3cc(OC)ccc3c2)c1 | – | – | 1.5 µM | 12.2 µM | 0.641 µM | 1.88 µM | 0.811 µM | 3.33 µM | – | > 20.7 µM | > 15 µM | > 50 µM | – | > 13.1 µM | > 50 µM | > 50 µM |
